Measured values: the supplement of paper PMC10307832

Legend:
Test in all cases: relative viability (nuclei count vs DMSO), 5 days (fraction); higher = more cells survive
[1] = compound: CC(C)CCN1c2nc(Nc3cc(F)c(O)c(F)c3)ncc2N(C)C(=O)C1C [BI-D1870] + CS(=O)(=O)CCNCc1ccc(-c2ccc3ncnc(Nc4ccc(OCc5cccc(F)c5)c(Cl)c4)c3c2)o1 [Lapatinib] (partner 2 µM)
How it was run: (§1)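 Nuclei were stained with Hoechst during a one-step fixation (final 0.05% Triton X-100, 1% formaldehyde, 1 ug/ml Hoechst) carried out 5 days after dosing, then counted on 4× images. The cells, lung cancer lines in 1536-well plates, had been dosed by pin tool the day after seeding with one drug alone or a fixed anchor-drug dose plus five library-drug doses (not always all listed) in √10 steps. Relative viability is the nuclei count in treated wells divided by that in vehicle wells, and each value is the median of duplicate plates.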

[2] = compound: O=c1ncccn1[C@@H]1O[C@H](CO)[C@@H](O)[C@H]1O [Zebularine] + Cc1cc(Nc2cc(N3CCN(C)CC3)nc(Sc3ccc(NC(=O)C4CC4)cc3)n2)n[nH]1 [Tozasertib] (partner 0.1 µM)
How it was run: as §1

[3] = compound: O=c1ncccn1[C@@H]1O[C@H](CO)[C@@H](O)[C@H]1O [Zebularine] + Cc1nc(NC(=O)N2CCC[C@H]2C(N)=O)sc1-c1ccnc(C(C)(C)C(F)(F)F)c1 [Alpelisib] (partner 2 µM)
How it was run: as §1

[4] = compound: O=c1ncccn1[C@@H]1O[C@H](CO)[C@@H](O)[C@H]1O [Zebularine] + O=C(c1cc(Cc2n[nH]c(=O)c3ccccc23)ccc1F)N1CCN(C(=O)C2CC2)CC1 [Olaparib] (partner 8 µM)
How it was run: as §1

Cell Line	relative viability ([1]; first compound 0.04 µM)	relative viability ([1]; first compound 0.1265 µM)	relative viability ([1]; first compound 0.4 µM)	relative viability ([1]; first compound 1.265 µM)	relative viability ([1]; first compound 4 µM)	relative viability ([2]; first compound 1 µM)	relative viability ([2]; first compound 3.162 µM)	relative viability ([2]; first compound 31.62 µM)	relative viability ([2]; first compound 100 µM)	relative viability ([3]; first compound 1 µM)	relative viability ([3]; first compound 3.162 µM)	relative viability ([3]; first compound 10 µM)	relative viability ([3]; first compound 31.62 µM)	relative viability ([3]; first compound 100 µM)	relative viability ([4]; first compound 1 µM)	relative viability ([4]; first compound 3.162 µM)	relative viability ([4]; first compound 10 µM)	relative viability ([4]; first compound 31.62 µM)	relative viability ([4]; first compound 100 µM)	relative viability ([2]; first compound 10 µM)
NCI-H1915	1.04	0.984	0.969	1.04	0.834	0.558	0.44	0.533	0.385	1.18	1.05	0.984	1.05	0.93	0.266	0.262	0.243	0.253	0.197	–
NCI-H1944	0.932	0.669	0.659	0.835	0.768	0.274	0.268	0.254	0.234	0.858	0.906	0.629	0.805	0.688	0.449	0.474	0.366	0.34	0.246	0.213
NCI-H1975	1.1	0.865	0.858	0.863	0.464	1.11	0.684	0.293	0.23	0.705	0.555	0.4	0.354	0.233	0.84	0.574	0.277	0.257	0.251	0.412
NCI-H1993	0.855	0.774	0.88	0.809	0.789	0.593	0.582	0.614	0.573	0.666	0.76	–	0.68	0.699	1.09	0.885	0.416	0.982	0.693	0.53
NCI-H2009	1.01	0.955	0.885	0.741	0.478	0.891	0.737	0.659	0.297	1.18	1.13	0.97	0.947	0.392	0.624	0.648	0.461	0.438	0.263	0.497
NCI-H2023	0.903	0.745	0.886	0.764	0.59	0.462	0.319	0.283	0.169	0.697	0.551	0.533	0.53	0.287	0.512	0.452	0.392	0.256	0.244	0.242
NCI-H2085	0.731	0.71	0.739	0.926	0.654	0.9	0.804	0.609	0.529	1.04	0.977	0.802	0.96	0.535	0.782	0.709	0.568	0.482	0.399	0.688
NCI-H2087	1.14	1.09	1.34	1.36	0.877	0.255	0.338	0.225	0.155	1.31	1.01	0.684	0.778	0.309	0.607	0.478	0.323	0.34	0.239	0.215
NCI-H2126	0.814	0.741	0.768	0.85	0.693	0.911	0.807	0.791	0.479	0.783	0.694	0.764	0.687	0.437	1.08	0.855	0.778	0.664	0.43	0.727
NCI-H2170	0.309	0.238	0.278	0.275	0.234	0.815	0.708	0.636	0.285	0.85	0.84	0.543	0.684	0.507	0.707	0.561	0.414	0.364	0.166	0.655
NCI-H2228	1.2	0.854	0.989	0.927	0.482	0.289	0.168	0.246	0.195	0.782	0.615	0.632	0.693	0.374	0.737	0.503	–	0.283	0.236	0.229
NCI-H2347	1.12	0.977	0.745	0.921	1.03	0.632	0.482	0.405	0.309	1.02	0.867	0.686	0.694	0.474	0.565	0.566	0.531	0.385	0.358	0.51
NCI-H2405	1.16	1.03	1.05	1.32	1.1	0.758	0.81	0.724	0.485	0.749	0.749	0.726	0.769	0.568	0.905	0.782	0.533	0.564	0.511	0.704
NCI-H3122	1.02	0.985	0.983	1.01	0.967	0.391	0.401	0.626	0.375	0.991	0.822	0.573	0.871	0.703	0.727	0.631	0.358	0.478	0.369	0.262
PC-3 [JPC-3]	0.455	0.425	0.463	0.52	0.385	0.963	0.924	0.668	0.473	1.09	0.948	0.748	0.824	0.469	1.18	0.984	0.675	0.673	0.593	0.485
PC-14	0.36	0.301	0.343	0.395	0.269	0.479	0.513	0.0922	0.0781	1.04	0.953	0.232	0.111	0.163	0.179	0.121	0.208	0.136	0.122	0.1
RERF-LC-KJ	0.886	0.783	0.8	0.821	0.863	0.533	0.433	0.553	0.473	0.93	0.859	0.611	1.03	0.753	0.989	0.874	0.655	1.03	0.845	0.458
SK-LU-1	0.922	0.894	0.791	0.793	0.462	0.378	0.34	0.302	0.29	1.2	0.875	0.66	0.745	0.468	0.434	0.351	0.333	0.313	0.289	0.254
SK-MES-1	0.468	0.443	0.417	0.509	0.356	1.02	0.991	0.611	0.248	0.902	1.01	0.596	0.575	0.345	0.947	0.722	0.479	0.393	0.268	0.599
SW 1573	1.13	1.16	1.11	1.25	1.14	0.223	0.163	0.137	0.148	0.728	0.792	0.448	0.743	0.646	0.487	0.442	0.33	0.46	0.325	–
